Measured values: US7507803B2, “Optimized multi-epitope constructs and uses thereof” (priority 2002, dated 2009)
Read-outs that look alike come from different tables or passages of the source. Ends that are not written are not given here.

Legend:
HLA supertype alleles = format: binding, human
HLA transgenic mice = experiment: CTL priming in HLA transgenic mice after DNA immunization (in situ IFNγ ELISA or chromium release)
H2^bxd mice = experiment: CTL response after peptide/IFA immunization, in situ ELISA; format: in vivo, mouse; conditions: peptide/IFA immunization of H2^bxd mice
[1] = tested on: PBL from individuals with acute or chronic HBV infection; conditions: independently reported (Sobao et al. 2001); cited from earlier work
HLA-A*0101 = HLA-A*0101 (Homo sapiens, UniProt P04439, A114D/A174V/A182V/D101N/D185E/E176A/E190D/L180R/Q94H/R68K/S129P/T187R/V100A/V91M/W191G); experiment: HLA class I peptide binding assay (purified HLA, IC50)
HLA-A2 transgenic mice = experiment: IFN-γ ELISPOT CTL responses after DNA immunization; format: in vivo, mouse; conditions: mice immunized with GCR-5835
[2] = A2, A3 or B7 supertype, five most common members
[3] = A1 or A24 supertype, three related alleles

For `CC[C@H](C)[C@H](NC(=O)[C@@H](NC(=O)[C@H](CC(C)C)NC(=O)[C@@H](NC(=O)[C@H](CCCNC(=N)N)NC(=O)[C@@H](NC(=O)[C@H](CC(C)C)NC(=O)[C@H](CC(C)C)NC(=O)[C@@H](N)Cc1ccccc1)[C@@H](C)O)[C@@H](C)CC)[C@@H](C)O)C(=O)O` [env 183], the “XRN (number of supertype alleles bound ≦500 nM)” value (HLA supertype alleles; [2]) was 4 and the “Immunogenicity of the epitope in construct HBV30C” value (HLA transgenic mice; mouse, in vivo) was “poorly immunogenic”.

In the case of `CC(C)C[C@H](NC(=O)[C@H](CC(C)C)NC(=O)[C@H](Cc1c[nH]c2ccccc12)NC(=O)[C@@H]1CCCN1C(=O)[C@H](Cc1ccccc1)NC(=O)[C@H](CO)NC(=O)[C@@H](NC(=O)[C@H](Cc1ccc(O)cc1)NC(=O)[C@@H](N)CCCCN)[C@@H](C)O)C(=O)O` [pol 745], the “Murine Immunogenicity (SU)” value (H2^bxd mice) is given as 158.7 SU and the “Recognition by CTL from HBV-infected individuals” value [1] is given as “recognized by CTL from HBV-infected individuals”.

With LTFGRETVLEY [core 137] the IC50 (HLA-A*0101) was 80 nM and the “XRN (number of supertype alleles bound ≦500 nM)” value (HLA supertype alleles; [3]) was 3.

For H-YSLNFMGY-OH [pol 580], the IC50 (HLA-A*0101) was 382 nM and the “XRN (number of supertype alleles bound ≦500 nM)” value (HLA supertype alleles; [3]) was 3.

With `CC(C)C[C@H](NC(=O)[C@H](CO)NC(=O)[C@H](CC(C)C)NC(=O)[C@@H](N)Cc1c[nH]c2ccccc12)C(=O)N[C@@H](CC(C)C)C(=O)N[C@H](C(=O)N1CCC[C@H]1C(=O)N[C@@H](Cc1ccccc1)C(=O)N[C@H](C(=O)O)C(C)C)C(C)C` [env 335] the “XRN (number of supertype alleles bound ≦500 nM)” value (HLA supertype alleles; [2]) was 4 and the “Primary ELISPOT response” value (HLA-A2 transgenic mice) was “approximately 100 SFC/10^6 CD8+ cells”.

B1: HBV30K: lead 30 epitope HBV CTL vaccine epigene construct, SEQ ID NO: 71/72 (nucleic acid)
DNA: ATGGGAATGCAGGTGCAAATACAGTCTCTCTTCCTTTTGCTTCTCTGGGTTCCAGGATCACGGGGCTTCTTGCTTAGCTTGGGCATCCACCTAAATGCTGCTGCAAAATACACATCTTTTCCTTGGCTCCTTAATGCCGCCGCTAGGTTTTCATGGCTGAGTCTGCTAGTACCTTTCAATGCGGCTTTCCCACATTGCCTAGCTTTTAGCTATATGAAAGCTGCTTTAGTCGTGGACTTTTCACAGTTTAGCAGAGGAGCAATCCTGCTGCTATGTCTGATATTCCTTCTAAACGCAGCAGCCCACACACTCTGGAAAGCTGGTATCCTTTACAAGAAAGCCTGGATGATGTGGTATTGGGGACCCAGCCTCTACAAAGCATACCCTGCCCTGATGCCACTATACGCATGCATTGGCGCGGCAGCCTGGTTATCCCTTTTAGTACCGTTTGTCAACGCCGCAGCGGGATTTCTATTAACCAGAATCCTGACGATTAATGCTGCCGCCATTCCGATCCCAAGTTCCTGGGCATTCAAAGCAGCCGCGGAGTATCTGGTTTCATTTGGCGTATGGAACCTGCCAAGCGACTTCTTTCCTTCTGTTAAGGCCGCTGCTTTCCTCCCCTCCGATTTCTTTCCATCGGTGAAAGCCGCTGCCGACCTCCTTGATACCGCGAGCGCTCTGTACAACTCGTGGCCAAAATTCGCAGTTCCAAACCTAAAAGCCGCCGCCAGTGCCATTTGTTCCGTGGTAAGGAGAAAATTATCACTCGACGTGTCCGCAGCATTTTATAACGCTGCTGCAAAGTTTGTCGCAGCATGGACATTGAAGGCTGCAGCGAAAGCAGCAAATGTATCAATACCCTGGACCCACAAGGGTGCAGCCGGGCTGTCTAGGTATGTGGCGAGGCTAAACGCCGCCGCCTCAACACTGCCTGAGACTACTGTCGTGAGACGCAAACACCCTGCCGCAATGCCCCACCTGCTGAAAGCAGCCGCACGATGGATGTGCCTCAGAAGATTCATAATAAACGCTTCTTTCTGTGGGTCACCCTACAAAGCCGCTTACATGGACGATGTGGTCCTCGGAGTGAATGCCCTCTGGTTCCATATCAGCTGCCTGACATTCAAGGCAGCCGCCACCCCCGCTCGTGTGACAGGAGGTGTCTTCAAAGCCGCGGCACTGACTTTCGGTCGGGAAACTGTATTGGAATATAAGCAGGCCTTCACATTCTCCCCAACATACAAGTGA
modifications: Hepatitis B Virus
In the case of B1, the “CTL responses induced by the construct (in words)” value (HLA transgenic mice; HLA transgenic mice (HLA-A2, -A3/A11; H2^bxd for A24)) is reported as “CTL responses as vigorous as HBV2”.
